From PubChem BioAssay AID248 (DTP/NCI, 2004)
Values joined by “and” are separate entries in the source; they are usually repeats but may differ in a detail not shown here. Identical values can stand only once. Toxic doses and inconclusive results are not listed.

Test system: L1210 leukemia ip in BDF1 mice, survival T/C
Test: NCI In Vivo Anticancer Drug Screen. Data for tumor model L1210 Leukemia (intraperitoneal) in B6D2F1 (BDF1) mice
Conditions: endpoint: mean survival time, higher = longer survival
Outline: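 In this screen, tumor-bearing mice given compound are compared to those given vehicle, and their survival values are reported as a treated-to-control quotient.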

[1] = dose: 50.0 mg/kg/injection, schedule: Q01DX001 (ip), vehicle: saline
[2] = dose: 100.0 mg/kg/injection, schedule: Q01DX001 (ip), vehicle: saline
[3] = dose: 200.0 mg/kg/injection, schedule: Q01DX001 (ip), vehicle: saline
[4] = dose: 100.0 mg/kg/injection, schedule: Q01DX009 (ip), vehicle: Klucel (hydroxypropylcellulose) (HPC)
[5] = dose: 200.0 mg/kg/injection, schedule: Q01DX009 (ip), vehicle: Klucel (hydroxypropylcellulose) (HPC)
[6] = dose: 400.0 mg/kg/injection, schedule: Q01DX009 (ip), vehicle: Klucel (hydroxypropylcellulose) (HPC)
[7] = dose: 100.0 mg/kg/injection, schedule: Q01DX009 (ip), vehicle: saline with Tween-80
[8] = dose: 100.0 mg/kg/injection, schedule: Q04DX003 (ip), vehicle: Klucel (hydroxypropylcellulose) (HPC)
[9] = dose: 200.0 mg/kg/injection, schedule: Q04DX003 (ip), vehicle: Klucel (hydroxypropylcellulose) (HPC)
[10] = dose: 400.0 mg/kg/injection, schedule: Q04DX003 (ip), vehicle: Klucel (hydroxypropylcellulose) (HPC)
[11] = dose: 75.0 mg/kg/injection, schedule: Q01DX001 (ip), vehicle: saline

Cc1ccc(S(=O)(=O)OCCN(CCOS(=O)(=O)c2ccc(C)cc2)c2ccc(F)cc2)cc1
T/C (dose: 1.9 mg/kg/injection, schedule: Q01DX009 (ip), vehicle: saline): 122 % of control
T/C (dose: 4.4 mg/kg/injection, schedule: Q01DX009 (ip), vehicle: saline): 122 % of control
T/C (dose: 6.5 mg/kg/injection, schedule: Q01DX009 (ip), vehicle: saline): 102 % of control
T/C (dose: 9.6 mg/kg/injection, schedule: Q01DX009 (ip), vehicle: saline): 124 % of control
T/C (dose: 10.0 mg/kg/injection, schedule: Q01DX009 (ip), vehicle: saline): 118 % of control
T/C (dose: 16.0 mg/kg/injection, schedule: Q01DX009 (ip), vehicle: saline): 113 % of control
T/C (dose: 22.0 mg/kg/injection, schedule: Q01DX009 (ip), vehicle: saline): 166 % of control
T/C (dose: 23.0 mg/kg/injection, schedule: Q01DX009 (ip), vehicle: saline): 113 % of control
T/C (dose: 24.0 mg/kg/injection, schedule: Q01DX009 (ip), vehicle: saline): 152 % of control
T/C (dose: 35.0 mg/kg/injection, schedule: Q01DX009 (ip), vehicle: saline): 121 % of control
T/C [1]: 97 % of control
T/C (dose: 50.0 mg/kg/injection, schedule: Q01DX009 (ip), vehicle: saline): 95 % of control
T/C (dose: 53.0 mg/kg/injection, schedule: Q01DX009 (ip), vehicle: other): 110 % of control
T/C (dose: 75.0 mg/kg/injection, schedule: Q01DX009 (ip), vehicle: saline): 88 % of control
T/C (dose: 79.0 mg/kg/injection, schedule: Q01DX009 (ip), vehicle: other): 98 % of control and 119 % of control
T/C [2]: 100 % of control
T/C (dose: 118.0 mg/kg/injection, schedule: Q01DX009 (ip), vehicle: other): 104 % of control
T/C (dose: 150.0 mg/kg/injection, schedule: Q01DX009 (ip), vehicle: saline): 123 % of control
T/C [3]: 105 % of control
T/C (dose: 400.0 mg/kg/injection, schedule: Q01DX001 (ip), vehicle: saline): 115 % of control

Cc1nc2c([N+](=O)[O-])cccn2n1
T/C (dose: 100.0 mg/kg/injection, schedule: Q01DX001 (ip), vehicle: acetone): 98 % of control

O=C(CCCc1ccc(N(CCCl)CCCl)cc1)NCc1ccccc1
T/C (dose: 4.0 mg/kg/injection, schedule: Q12HX018 (ip), vehicle: other): 112 % of control
T/C (dose: 6.0 mg/kg/injection, schedule: Q12HX018 (ip), vehicle: other): 103 % of control
T/C (dose: 8.0 mg/kg/injection, schedule: Q12HX018 (ip), vehicle: other): 108 % of control

COc1ccc(C(C(C)=O)N2CCN(c3ccccc3)CC2)cc1 (stereo not given)
T/C (dose: 100.0 mg/kg/injection, schedule: Q04DX003 (ip), vehicle: other): 98 % of control
T/C (dose: 200.0 mg/kg/injection, schedule: Q04DX003 (ip), vehicle: other): 95 % of control

c1ccc(C(c2ccccc2)n2cc[n+](C(c3ccccc3)c3ccccc3)c2)cc1
T/C (dose: 12.5 mg/kg/injection, schedule: Q04DX002 (ip), vehicle: gum acacia): 96 % of control
T/C (dose: 25.0 mg/kg/injection, schedule: Q04DX002 (ip), vehicle: gum acacia): 114 % of control

C(=C\C[n+]1ccccc1)/C[n+]1ccccc1
T/C [1]: 106 % of control
T/C [2]: 112 % of control
T/C [3]: 106 % of control

CCc1c([N+](=O)[O-])oc2ccc(Cl)cc12
T/C [4]: 103 % of control
T/C [5]: 105 % of control
T/C [6]: 107 % of control

COC1=C(OC)C(=O)C(SC/C=C(\C)CCCC(C)CCCC(C)CCCC(C)C)=CC1=O (stereo not given)
T/C (dose: 6.25 mg/kg/injection, schedule: Q01DX009 (ip), vehicle: saline with Tween-80): 103 % of control
T/C (dose: 12.5 mg/kg/injection, schedule: Q01DX009 (ip), vehicle: saline with Tween-80): 105 % of control
T/C (dose: 25.0 mg/kg/injection, schedule: Q01DX009 (ip), vehicle: saline with Tween-80): 100 % of control and 113 % of control
T/C (dose: 50.0 mg/kg/injection, schedule: Q01DX009 (ip), vehicle: saline with Tween-80): 104 % of control and 122 % of control
T/C [7]: 105 % of control and 122 % of control
T/C (dose: 200.0 mg/kg/injection, schedule: Q01DX009 (ip), vehicle: saline with Tween-80): 115 % of control and 124 % of control
T/C (dose: 400.0 mg/kg/injection, schedule: Q01DX009 (ip), vehicle: saline with Tween-80): 115 % of control

CC(C)=C1C2CCC1C(CO)C2CO (stereo not given)
T/C [4]: 95 % of control
T/C [8]: 102 % of control
T/C [5]: 102 % of control
T/C [9]: 100 % of control
T/C [6]: 104 % of control
T/C [10]: 96 % of control

CC(C)=NNC(=O)NO
T/C [11]: 102 % of control

Clc1ccc(/C=N/N=C(N/N=C/c2ccc(Cl)cc2Cl)N/N=C/c2ccc(Cl)cc2Cl)c(Cl)c1
T/C (dose: 15.0 mg/kg/injection, schedule: Q01DX Z (ip), vehicle: carboxymethylcellulose (CMC)): 88 % of control
T/C (dose: 30.0 mg/kg/injection, schedule: Q01DX Z (ip), vehicle: carboxymethylcellulose (CMC)): 93 % of control
T/C (dose: 60.0 mg/kg/injection, schedule: Q01DX Z (ip), vehicle: carboxymethylcellulose (CMC)): 95 % of control and 88 % of control
T/C (dose: 120.0 mg/kg/injection, schedule: Q01DX Z (ip), vehicle: carboxymethylcellulose (CMC)): 87 % of control and 88 % of control
T/C (dose: 240.0 mg/kg/injection, schedule: Q01DX Z (ip), vehicle: carboxymethylcellulose (CMC)): 93 % of control
T/C (dose: 240.0 mg/kg/injection, schedule: Q01DX Z (oral), vehicle: carboxymethylcellulose (CMC)): 102 % of control
T/C (dose: 480.0 mg/kg/injection, schedule: Q01DX Z (ip), vehicle: carboxymethylcellulose (CMC)): 87 % of control
T/C (dose: 480.0 mg/kg/injection, schedule: Q01DX Z (oral), vehicle: carboxymethylcellulose (CMC)): 104 % of control
T/C (dose: 960.0 mg/kg/injection, schedule: Q01DX Z (oral), vehicle: carboxymethylcellulose (CMC)): 105 % of control
T/C (dose: 1920.0 mg/kg/injection, schedule: Q01DX Z (oral), vehicle: carboxymethylcellulose (CMC)): 102 % of control

Cc1ccc(NC(=S)Nc2cccc(C(F)(F)F)c2)cc1C
T/C (dose: 87.5 mg/kg/injection, schedule: Q01DX009 (ip), vehicle: Klucel (hydroxypropylcellulose) (HPC)): 101 % of control
T/C (dose: 175.0 mg/kg/injection, schedule: Q01DX009 (ip), vehicle: Klucel (hydroxypropylcellulose) (HPC)): 98 % of control
T/C (dose: 350.0 mg/kg/injection, schedule: Q01DX009 (ip), vehicle: Klucel (hydroxypropylcellulose) (HPC)): 102 % of control

O=C(CSC1=NCCN1)c1ccccc1
T/C [7]: 101 % of control

O=C1c2ccccc2C(=O)c2c(Nc3ccccc3)ccc(O)c21
T/C [8]: 97 % of control
T/C [9]: 98 % of control

Cc1ccc(NC(=O)COc2ccc(Cl)cc2)c([N+](=O)[O-])c1
T/C [4]: 101 % of control
T/C [8]: 88 % of control
T/C [5]: 101 % of control
T/C [9]: 90 % of control
T/C [6]: 91 % of control
T/C [10]: 88 % of control

CC1(C(N)=O)CC2C=CC1C2 (stereo not given)
T/C (dose: 200.0 mg/kg/injection, schedule: Q01DX001 (ip), vehicle: carboxymethylcellulose (CMC)): 98 % of control
T/C (dose: 400.0 mg/kg/injection, schedule: Q01DX001 (ip), vehicle: carboxymethylcellulose (CMC)): 95 % of control

CC(=O)OC1C(=O)C(C)(C)CN(C(C)(C)C)CC1(C)C (stereo not given)
T/C (dose: 100.0 mg/kg/injection, schedule: Q01DX001 (ip), vehicle: saline sonified): 102 % of control
T/C (dose: 200.0 mg/kg/injection, schedule: Q01DX001 (ip), vehicle: saline sonified): 91 % of control
T/C (dose: 400.0 mg/kg/injection, schedule: Q01DX001 (ip), vehicle: saline sonified): 90 % of control

O=c1ccc2c(ccc3ncccc32)o1
T/C (dose: 50.0 mg/kg/injection, schedule: Q01DX009 (ip), vehicle: carboxymethylcellulose (CMC)): 87 % of control
T/C (dose: 50.0 mg/kg/injection, schedule: Q04DX003 (ip), vehicle: carboxymethylcellulose (CMC)): 117 % of control
T/C (dose: 100.0 mg/kg/injection, schedule: Q01DX009 (ip), vehicle: carboxymethylcellulose (CMC)): 98 % of control
T/C (dose: 100.0 mg/kg/injection, schedule: Q04DX003 (ip), vehicle: carboxymethylcellulose (CMC)): 111 % of control
T/C (dose: 200.0 mg/kg/injection, schedule: Q04DX003 (ip), vehicle: carboxymethylcellulose (CMC)): 93 % of control

O=S1(=O)C2CCCC1CCC2
T/C (dose: 10.0 mg/kg/injection, schedule: Q01DX001 (ip), vehicle: saline): 98 % of control and 109 % of control
T/C (dose: 40.0 mg/kg/injection, schedule: Q01DX001 (ip), vehicle: saline): 102 % of control
T/C [11]: 109 % of control
T/C (dose: 150.0 mg/kg/injection, schedule: Q01DX001 (ip), vehicle: saline): 100 % of control
T/C (dose: 300.0 mg/kg/injection, schedule: Q01DX001 (ip), vehicle: saline): 104 % of control
